According to ChEMBL document CHEMBL4196244, “Matrine-Type Alkaloids from the Roots of Sophora flavescens and Their Antiviral Activities against the Hepatitis B Virus” (J Nat Prod, 2018):
Calls of active or inactive are those of the source. The rule behind the calls is not given here.

Assays:
Hepatitis B virus [1] = assay: Antiviral activity against HBV infected in human HepG2.2.15 cells assessed as inhibition of HBsAg secretion at 0.4 mM supplemented with fresh medium containing compound every 3 days for 9 days measured after 9 days by ELISA relative to control; format: functional
[2] = Cytotoxicity against human HepG2.2.15 cells assessed as growth inhibition at 0.8 mM by MTT assay relative to control; format: cell-based, HepG2 2.2.15; settings: read-out: GI
Hepatitis B virus [3] = assay: Antiviral activity against HBV infected in human HepG2.2.15 cells assessed as inhibition of HBeAg secretion at 0.4 mM supplemented with fresh medium containing compound every 3 days for 9 days measured after 9 days by ELISA relative to control; format: functional
Hepatitis B virus [4] = assay: Antiviral activity against HBV infected in human HepG2.2.15 cells assessed as inhibition of HBsAg secretion at 0.2 mM supplemented with fresh medium containing compound every 3 days for 9 days measured after 9 days by ELISA relative to control; format: functional
Hepatitis B virus [5] = assay: Antiviral activity against HBV infected in human HepG2.2.15 cells assessed as inhibition of HBeAg secretion at 0.2 mM supplemented with fresh medium containing compound every 3 days for 9 days measured after 9 days by ELISA relative to control; format: functional
[6] = Cytotoxicity against human HepG2.2.15 cells assessed as growth inhibition at 0.4 mM by MTT assay relative to control; format: cell-based, HepG2 2.2.15; settings: read-out: GI
Hepatitis B virus [7] = assay: Antiviral activity against HBV infected in human HepG2.2.15 cells assessed as inhibition of HBsAg secretion at 0.8 mM supplemented with fresh medium containing compound every 3 days for 9 days measured after 9 days by ELISA relative to control; format: functional
Hepatitis B virus [8] = assay: Antiviral activity against HBV infected in human HepG2.2.15 cells assessed as inhibition of HBeAg secretion at 0.8 mM supplemented with fresh medium containing compound every 3 days for 9 days measured after 9 days by ELISA relative to control; format: functional
[9] = Cytotoxicity against human HepG2.2.15 cells assessed as growth inhibition at 1 mM by MTT assay relative to control; format: cell-based, HepG2 2.2.15; settings: read-out: GI
Hepatitis B virus [10] = assay: Antiviral activity against HBV infected in human HepG2.2.15 cells assessed as inhibition of HBsAg secretion at 1 mM supplemented with fresh medium containing compound every 3 days for 9 days measured after 9 days by ELISA relative to control; format: functional
Hepatitis B virus [11] = assay: Antiviral activity against HBV infected in human HepG2.2.15 cells assessed as inhibition of HBeAg secretion at 1 mM supplemented with fresh medium containing compound every 3 days for 9 days measured after 9 days by ELISA relative to control; format: functional

| SMILES | inhibition (INH) (Hepatitis B virus [1]) | inhibition at 800 µM [2] | inhibition (INH) (Hepatitis B virus [3]) | other results |
| --- | --- | --- | --- | --- |
| O=C1CC[C@H]2[C@@H]3[C@H](CCCN13)CN1C(=O)CCC[C@H]21 | 32.5% | ≥ 25% | 18.3% | – |
| O=C1CCCN2CCC[C@](O)(CN3C(=O)CCC[C@H]13)C2=O | 14.1% | ≥ 25% | – | inhibition (Hepatitis B virus [3]): inactive |
| O=C(O)CCCc1ncc2c3c1CCCN3CCC2 | 37.2% | ≥ 25% | 33.2% | – |
| O=C1CCC[C@@H]2[C@H]3CCCN4CCC[C@H](CN12)[C@H]34 | 13.8% | ≥ 25% | – | inhibition (Hepatitis B virus [3]): inactive |
| O=C1CCC[C@@H]2[C@H]3CCCN4CCC[C@H](CN12)[C@@H]34 [SOPHORIDINE] | 40.2% | ≥ 25% | 21.9% | – |
| O=C1CCC[C@@H]2[C@H]3CCCN4CCC[C@@H](CN12)[C@H]34 | 26.3% | ≥ 25% | 17.7% | – |
| O=C1CCC[C@@H]2[C@H]3CCCN4CCC[C@@](O)(CN12)[C@@H]34 | – | – | – | inhibition (INH) (Hepatitis B virus [4]): 33.8%; inhibition (INH) (Hepatitis B virus [5]): 28.4%; inhibition at 400 µM [6]: ≥ 25% |
| O=C1[C@@H](O)CC[C@@H]2[C@H]3CCCN4CCC[C@@H](CN12)[C@@H]34 | 33.2% | ≥ 25% | 18.5% | – |
| O=C1CCC[C@@H]2[C@H]3CCC[N+]4([O-])CCC[C@@H](CN12)[C@@H]34 (stereo partly specified) [OXYMATRINE] | 38.3% | ≥ 25% | 20.3% | – |
| O=C1CCCC2=C3CCC[N+]4([O-])CCC[C@@H](CN12)[C@@H]34 (stereo partly specified) | – | – | – | inhibition (INH) (Hepatitis B virus [7]): 25.4%; inhibition (INH) (Hepatitis B virus [8]): 22.6%; inhibition at 1000 µM [9]: ≥ 25% |
| O=C1CCC[C@@H]2[C@H]3CCCN4CCC[C@@H](CN12)[C@@H]34 [MATRINE] | 34.7% | ≥ 25% | 16.8% | – |
| O=C(CCCc1ncc2c3c1CCCN3CCC2)N1CCCCC1 | – | – | – | inhibition (INH) (Hepatitis B virus [4]): 44.3%; inhibition (INH) (Hepatitis B virus [5]): 38%; inhibition at 400 µM [6]: ≥ 25% |
| O=C1CC[C@H]2C3=C(CCCN13)CN1C(=O)CCC[C@H]21 | – | – | – | inhibition (INH) (Hepatitis B virus [4]): 33%; inhibition (INH) (Hepatitis B virus [5]): 38.8%; inhibition at 400 µM [6]: ≥ 25% |
| Nc1ccn([C@@H]2CS[C@H](CO)O2)c(=O)n1 [LAMIVUDINE] | – | – | – | inhibition (INH) (Hepatitis B virus [10]): 31.5 - 32.6%; inhibition (INH) (Hepatitis B virus [11]): 37.5% |
| O=C(O)CCC[C@@H]1N=CC2=C3[C@H]1CCCN3CCC2 | 30.8% | ≥ 25% | 16.8% | – |
| O=C1CCCC2=C3CCCN4CCC[C@@H](CN12)[C@@H]34 | 22.4% | ≥ 25% | 29.9% | – |
| O=C1CCCN2CCC[C@](O)(C2=O)[C@H]2CCCC(=O)N2C1 | 46% | ≥ 25% | 40.4% | – |
| O=C(O)CCCC1=NCC2CCCN3CCCC1=C23 (racemic) | 29.8% | ≥ 25% | 15.1% | – |
| O=c1cccc2n1C[C@@H]1CCCN3CCC[C@H]2[C@H]13 | – | – | – | inhibition (INH) (Hepatitis B virus [7]): 29.5%; inhibition (INH) (Hepatitis B virus [8]): 13.5%; inhibition at 1000 µM [9]: ≥ 25% |
